From US8722683B2, “Benzodioxole piperazine compounds” (Hoffmann LA-Roche Inc., priority 2011, dated 2014)

What was measured:
D3 receptor = D3 receptor (Homo sapiens (Human), UniProt P35462); assay: Radioligand binding ([3H]-spiperone) to cloned D3 receptor expressed in HEK-293 EBNA cells; conditions: HEK293 EBNA membranes, 0.5 nM [3H]-spiperone
Description: (§1) HEK293 EBNA cells were transiently transfected with expression plasmids encoding for the human D2 or D3 or for the human 5-HT2A receptor, respectively. The cells were harvested 48 h post-transfection, washed three times with cold PBS and stored at −80° C. prior to use. The pellet was suspended in cold 50 mM Tris-HCl buffer containing 10 mM EDTA (pH 7.4) and was homogenized with a Polytron (Kinematica AG, Basel, Switzerland) for 20-30 sec at 12.000 rpm. After centrifugation at 48.000×g for 30 min at 4° C., the pellet was resuspended in cold 10 mM Tris-HCl buffer containing 0.1 mM EDTA (pH 7.4), homogenized, and centrifuged as above. This pellet was further resuspended in a smaller volume of ice cold 10 mM Tris-HCl buffer containing 0.1 mM EDTA (pH 7.4) and homogenized with a Polytron for 20-30 sec at 12.000 rpm. The protein content of this homogenate was determined with the Bio-Rad (Bradford) Protein Assay (Biorad Laboratories GmbH, München, Germany) according to the instructions of the manufacturer using gamma globulin as the standard. This homogenate was stored at −80° C. in aliquots and thawed immediately prior to use.
(§2) Radioligand Binding Assay
(§3) Aliquots of membrane preparations were thawed at RT, resupended in assay buffer (D2, D3: 50 mM Tris-HCl, 120 mM NaCl, 5 mM MgCl2, 1 mM EDTA, 5 mM KCl, 1.5 mM CaCl2, pH=7.4; 5-HT2A: 50 mM Tris-HCl, 10 mM MgCl2, 1 mM EGTA, pH=7.4), homogenized with a Polytron for 20-30 sec at 12.000 rpm and adjusted to a final concentration of approximately 7.5 μg protein/well (D2, D3) and 15 μg protein/well (5-HT2A), respectively.
The binding affinity (Ki) of the compounds was determined using radioligand binding. […] At the end of the incubation, the reaction mixtures were filtered on to unifilter 96-well white microplates with bonded GF/C filters (Packard BioScience, Zürich, Switzerland; preincubated for 1 h in 0.1% polyethylenimine (PEI) in assay buffer) with a Filtermate 196 harvester (Packard BioScience) and washed 3 times with cold assay buffer. The nonspecific binding was determined with equally composed reaction mixtures in the presence of 10 μM unlabelled spiperone. Per well 45 μl of Microscint 40 (Perkin Elmer, Schwerzenbach, Switzerland) was added, plates for sealed, shaken for 20 min and counted for 3 min on a Topcount Microplate Scintillation Counter (Canberra Packard SA, Zürich, Switzerland) with quenching correction.
(§4) The CPM value for each duplicate of a concentration of competing compound was averaged (y1), then the % specific binding was calculated according to the equation (((y1−non-specific)/(total binding−non-specific))×100). Graphs were plotted with the % specific binding using XLfit, a curve fitting program that iteratively plots the data using Levenberg-Marquardt algorithm. The single site competition analysis equation used was y=A+((B−A)/(1+((x/C)D))), where y is the % specific binding, A is the minimum y, B is the maximum y, C is the IC50, x is the log 10 of the concentration of the competing compound and D is the slope of the curve (the Hill Coefficient). […] The affinity constant (Ki) was calculated using the Cheng-Prusoff equation Ki=(IC50/1+([L]/Kd), where [L] is the concentration of radioligand and Kd is the dissociation constant of the radioligand at the receptor as determined by the saturation isotherm.

D2 receptor = D2 receptor (Homo sapiens (Human), UniProt P14416); assay: Radioligand binding ([3H]-spiperone) to cloned D2 receptor expressed in HEK-293 EBNA cells; conditions: HEK293 EBNA membranes, 0.7 nM [3H]-spiperone
Description: as §1, §2, §3
The binding affinity (Ki) of the compounds was determined using radioligand binding. […] The nonspecific binding was determined with equally composed reaction mixtures in the presence of 10 μM unlabelled spiperone. Per well 45 μl of Microscint 40 (Perkin Elmer, Schwerzenbach, Switzerland) was added, plates for sealed, shaken for 20 min and counted for 3 min on a Topcount Microplate Scintillation Counter (Canberra Packard SA, Zürich, Switzerland) with quenching correction.
as §4

Chain of D2 receptor (P14416 whole entry): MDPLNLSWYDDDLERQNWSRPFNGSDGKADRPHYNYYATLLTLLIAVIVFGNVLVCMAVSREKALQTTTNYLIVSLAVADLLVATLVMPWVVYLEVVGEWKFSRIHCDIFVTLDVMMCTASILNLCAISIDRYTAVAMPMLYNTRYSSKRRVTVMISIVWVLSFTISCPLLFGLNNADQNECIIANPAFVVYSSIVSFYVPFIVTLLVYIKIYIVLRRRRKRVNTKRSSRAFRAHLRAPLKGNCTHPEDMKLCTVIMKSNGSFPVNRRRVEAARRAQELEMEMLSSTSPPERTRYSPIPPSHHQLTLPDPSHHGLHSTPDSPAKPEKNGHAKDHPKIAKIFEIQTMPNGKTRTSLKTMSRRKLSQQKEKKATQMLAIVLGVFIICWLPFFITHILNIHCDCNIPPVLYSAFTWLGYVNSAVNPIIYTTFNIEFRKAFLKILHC
Chain of D3 receptor (P35462 whole entry): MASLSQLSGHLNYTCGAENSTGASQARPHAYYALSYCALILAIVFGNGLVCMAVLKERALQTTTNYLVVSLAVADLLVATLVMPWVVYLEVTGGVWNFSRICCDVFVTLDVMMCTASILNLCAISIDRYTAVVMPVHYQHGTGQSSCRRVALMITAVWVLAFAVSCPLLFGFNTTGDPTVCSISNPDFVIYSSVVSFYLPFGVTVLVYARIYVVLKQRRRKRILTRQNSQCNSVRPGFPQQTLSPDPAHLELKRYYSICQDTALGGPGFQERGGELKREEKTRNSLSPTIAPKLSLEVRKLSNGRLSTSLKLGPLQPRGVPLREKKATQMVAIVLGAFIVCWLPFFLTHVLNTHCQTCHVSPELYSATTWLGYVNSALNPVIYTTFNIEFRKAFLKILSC

Compound | Ki (D3 receptor) | Ki (D2 receptor)
CCCC(=O)N[C@H]1CC[C@H](CCN2CCN(c3cccc4c3OCO4)CC2)CC1 [Example 19, Trans-N-{4-[2-(4-Benzo[1,3]dioxol-4-yl-piperazin-1-yl)-ethyl]-cyclohexyl}-butyramide] | 1.58 nM | 144 nM
CC(C)(O)C(=O)N[C@H]1CC[C@H](CCN2CCN(c3cccc4c3OCO4)CC2)CC1 [Example 24, Trans-N-{4-[2-(4-Benzo[1,3]dioxol-4-yl-piperazin-1-yl)-ethyl]-cyclohexyl}-2-hydroxy-2-methyl-propionamide] | 8.8 nM | 181 nM
O=C(N[C@H]1CC[C@H](CCN2CCN(c3cccc4c3OCO4)CC2)CC1)C1(O)CC1 [Example 29, Trans-1-Hydroxy-cyclopropanecarboxylic acid {4-[2-(4-benzo[1,3]dioxol-4-yl-piperazin-1-yl)-ethyl]-cyclohexyl}-amide] | 1.88 nM | 61.5 nM
O=C(N[C@H]1CC[C@H](CCN2CCN(c3cccc4c3OCO4)CC2)CC1)C1(O)CCCC1 [Example 36, 1-Hydroxy-cyclopentanecarboxylic acid-trans-N-{4-[2-(4-benzo[1,3]dioxol-4-yl-piperazin-1-yl)-ethyl]-cyclohexyl}-amide] | 11 nM | 124 nM
O=C(N[C@H]1CC[C@H](CCN2CCN(c3cccc4c3OCO4)CC2)CC1)C1(O)CCCCC1 [Example 37, 1-Hydroxy-cyclohexanecarboxylic acid-trans-N-{4-[2-(4-benzo[1,3]dioxol-4-yl-piperazin-1-yl)-ethyl]-cyclohexyl}-amide] | 15.7 nM | 175 nM
COC1(C(=O)N[C@H]2CC[C@H](CCN3CCN(c4cccc5c4OCO5)CC3)CC2)CCCCC1 [Example 41, 1-Methoxy-cyclohexanecarboxylic acid-Trans-N-{4-[2-(4-benzo[1,3]dioxol-4-yl-piperazin-1-yl)-ethyl]-cyclohexyl}-amide] | 12.5 nM | 251 nM
O=C(N[C@H]1CC[C@H](CCN2CCN(c3cccc4c3OCO4)CC2)CC1)c1ccc(F)cc1 [Example 46, Trans-N-{4-[2-(4-Benzo[1,3]dioxol-4-yl-piperazin-1-yl)-ethyl]-cyclohexyl}-4-fluoro-benzamide] | 3.79 nM | 82.5 nM
O=C(N[C@H]1CC[C@H](CCN2CCN(c3cccc4c3OCO4)CC2)CC1)c1ccnc2ccccc12 [Example 47, Quinoline-4-carboxylic acid-trans-N-{4-[2-(4-benzo[1,3]dioxol-4-yl-piperazin-1-yl)-ethyl]-cyclohexyl}-amide] | 2.4 nM | 509 nM
O=C(Cc1ccc2c(c1)OCO2)N[C@H]1CC[C@H](CCN2CCN(c3cccc4c3OCO4)CC2)CC1 [Example 51, 2-Benzo[1,3]dioxol-5-yl-trans-N-{4-[2-(4-benzo[1,3]dioxol-4-yl-piperazin-1-yl)-ethyl]-cyclohexyl}-acetamide] | 2.11 nM | 681 nM
O=C(CC1CCOCC1)N[C@H]1CC[C@H](CCN2CCN(c3cccc4c3OCO4)CC2)CC1 [Example 53, N-trans-{4-[2-(4-Benzo[1,3]dioxol-4-yl-piperazin-1-yl)-ethyl]-cyclohexyl}-2-(tetrahydro-pyran-4-yl)-acetamide] | 2.09 nM | 139 nM
O=C(N[C@H]1CC[C@H](CCN2CCN(c3cccc4c3OCO4)CC2)CC1)C1CCC1 [Example 54, Cyclobutanecarboxylic acid-trans-N-{4-[2-(4-benzo[1,3]dioxol-4-yl-piperazin-1-yl)-ethyl]-cyclohexyl}-amide] | 1.97 nM | 91.1 nM
O=C(N[C@H]1CC[C@H](CCN2CCN(c3cccc4c3OCO4)CC2)CC1)C1CC(Cl)C1 (stereo partly drawn) [Example 60, 3-Chloro-cyclobutanecarboxylic acid-trans-N-{4-[2-(4-benzo[1,3]dioxol-4-yl-piperazin-1-yl)-ethyl]-cyclohexyl}-amide] | 2.98 nM | 81.1 nM
COC(C)(C)C(=O)N[C@H]1CC[C@H](CCN2CCN(c3cccc4c3OCO4)CC2)CC1 [Example 63, Trans-N-{4-[2-(4-Benzo[1,3]dioxol-4-yl-piperazin-1-yl)-ethyl]-cyclohexyl}-2-methoxy-2-methyl-propionamide] | 27.4 nM | 117 nM
CO[C@@H](C(=O)N[C@H]1CC[C@H](CCN2CCN(c3cccc4c3OCO4)CC2)CC1)C(C)C [Example 64, (R)-trans-N-{4-[2-(4-Benzo[1,3]dioxol-4-yl-piperazin-1-yl)-ethyl]-cyclohexyl}-2-methoxy-3-methyl-butyramide] | 14.7 nM | 89.5 nM

Further lines, results first:

Ki (D3 receptor) | Ki (D2 receptor) | Compound
2.5 nM | 183 nM | CO[C@@H]1CC[C@@H](CC(=O)N[C@H]2CC[C@H](CCN3CCN(c4cccc5c4OCO5)CC3)CC2)C1 [Example 23, Trans-N-{4-[2-(4-Benzo[1,3]dioxol-4-yl-piperazin-1-yl)-ethyl]-cyclohexyl}-2-((1R,3R)-3-methoxy-cyclopentyl)-acetamide]
1.56 nM | 76.8 nM | CC(C)(O)CC(=O)N[C@H]1CC[C@H](CCN2CCN(c3cccc4c3OCO4)CC2)CC1 [Example 27, Trans-N-{4-[2-(4-Benzo[1,3]dioxol-4-yl-piperazin-1-yl)-ethyl]-cyclohexyl}-3-hydroxy-3-methyl-butyramide]
1.4 nM | 94.6 nM | O=C(CC1(O)CCC1)N[C@H]1CC[C@H](CCN2CCN(c3cccc4c3OCO4)CC2)CC1 [Example 28, Trans-N-{4-[2-(4-Benzo[1,3]dioxol-4-yl-piperazin-1-yl)-ethyl]-cyclohexyl}-2-(1-hydroxy-cyclobutyl)-acetamide]
3.1 nM | 145 nM | CS(=O)(=O)N[C@H]1CC[C@H](CCN2CCN(c3cccc4c3OCO4)CC2)CC1 [Example 34, Trans-N-{4-[2-(4-Benzo[1,3]dioxol-4-yl-piperazin-1-yl)-ethyl]-cyclohexyl}-methanesulfonamide]
2.17 nM | 89.8 nM | C[C@@H](O)C(=O)N[C@H]1CC[C@H](CCN2CCN(c3cccc4c3OCO4)CC2)CC1 [Example 42, (R)-Trans-N-{4-[2-(4-Benzo[1,3]dioxol-4-yl-piperazin-1-yl)-ethyl]-cyclohexyl}-2-hydroxy-propionamide]
1.79 nM | 88.2 nM | O=C(N[C@H]1CC[C@H](CCN2CCN(c3cccc4c3OCO4)CC2)CC1)c1cccnc1 [Example 48, Trans-N-{4-[2-(4-Benzo[1,3]dioxol-4-yl-piperazin-1-yl)-ethyl]-cyclohexyl}-nicotinamide]
0.87 nM | 572 nM | O=C(N[C@H]1CC[C@H](CCN2CCN(c3cccc4c3OCO4)CC2)CC1)C1COc2ccccc2C1 (stereo partly drawn) [Example 50, Chroman-3-carboxylic acid-trans-N-{4-[2-(4-benzo[1,3]dioxol-4-yl-piperazin-1-yl)-ethyl]-cyclohexyl}-amide]
1.45 nM | 95.4 nM | CS(=O)(=O)CC(=O)N[C@H]1CC[C@H](CCN2CCN(c3cccc4c3OCO4)CC2)CC1 [Example 55, Trans-N-{4-[2-(4-Benzo[1,3]dioxol-4-yl-piperazin-1-yl)-ethyl]-cyclohexyl}-2-methanesulfonyl-acetamide]
3.55 nM | 101 nM | N#Cc1ccc(C(=O)N[C@H]2CC[C@H](CCN3CCN(c4cccc5c4OCO5)CC3)CC2)cc1 [Example 59, Trans-N-{4-[2-(4-Benzo[1,3]dioxol-4-yl-piperazin-1-yl)-ethyl]-cyclohexyl}-4-cyano-benzamide]
